Read-outs that look alike come from different tables or passages of the source.
Assays:
[1] = Plasma PK after single oral administration in solution, rat; assay type: in vivo, Sprague-Dawley Rat
Protocol: (§1) An oral formulation containing a compound of Formula (Ia) in […], 20% propylene glycol, 45 PEG 300, and 30% 0.01 N HCl was prepared. The formulation was orally administered to male rat, dog, cynomolgus monkey, and rhesus monkey according to the doses shown in Table 8 below.

[2] = Plasma PK after single oral administration in solution, cynomolgus monkey; assay type: in vivo
Protocol: as §1

HIV-2 isolates = test: Antiviral activity against HIV-2 isolates in PHA-stimulated human PBMCs; assay type: cell-based; conditions: Human immunodeficiency virus 2, PBMC, 168 h, 7-day infection, RT activity readout, mean of triplicate
Protocol: The antiretroviral activity of the compound of Formula (Ia) was tested against a panel of 22 HIV-1 clinical isolates of HIV-1 and two HIV-2 isolates in freshly isolated, PHA-stimulated human peripheral blood mononuclear cells (PBMCs). The HIV-1 isolates included representative strains from subtypes A, B, C, D, E, F, G, N, O, AE, and AG. Following a 7-day infection, virus production was determined by measuring reverse transcriptase activity in cell-free culture supernatants.

[3] = Plasma PK after single oral administration in solution, rhesus monkey; assay type: in vivo
Protocol: as §1

[4] = PK after oral administration of spray-dried dispersion (SDD) tablets in dogs; assay type: in vivo; conditions: beagle dogs, 300 mg fixed dose
Protocol: A tablet, prepared from a spray-dried dispersion of a sodium salt of the compound of Formula (Ia), was prepared in a composition shown in Table T below (with an outer film coating made of Opadry® II White 85F18422, wherein the outer film coating provides a 3% weight gain based on the uncoated tablet) and was administered orally at 300 mg fixed dose to 6 beagle dogs (Table U) and the pharmacokinetic (PK) profile was determined. […] Plasma concentrations of the compound of Formula (Ia) were maintained above the target trough concentration of 20 nM for at least 14 days (2 weeks).

WT HXB2D = test: Cytopathic antiviral assay in MT-2 cells, wild type HXB2D; assay type: cell-based, HIV-1; conditions: mean ± s.d. of three experiments in triplicate
Protocol: (§2) The antiviral activity of the compound of Formula (a) was tested against a panel of known HIV-1 mutants resistant to HIV PIs (ATV and DRV), NRTIs (TFV and FTC), NNRTIs (RPV and EFV) or INSTIs (RAL, EVG and DTG) using a cytopathic antiviral assay in MT-2 cells. The compound of Formula (Ia) was fully active against all tested mutants resistant to PIs (Table 11), NRTIs (Table 12), NNRTIs (Table 13) or INSTIs (Table 14).

NRTI-resistant viruses = assay type: cell-based, HIV-1; conditions: MT-2 cells; for EC50 Fold-Change: Mutant/WT (LAI) EC50 ratio, mean ± s.d. of three experiments
Protocol: The antiviral activity of the compound of Formula (a) was tested against a panel of known HIV-1 mutants resistant to HIV PIs (ATV and DRV), NRTIs (TFV and FTC), NNRTIs (RPV and EFV) or INSTIs (RAL, EVG and DTG) using a cytopathic antiviral assay in MT-2 cells.

[5] = PK after oral administration in liquid-filled capsules in dogs; assay type: in vivo, beagle dogs; conditions: for bioavailability: oral, calculated based on AUC0-72h vs average IV AUC0-72h
Protocol: A single dose of the compound of Formula (Ia), formulated as liquid-filled capsules (LFC) containing either 100% glycerol monocaprylocaprate or 20% caprylocaproyl polyoxyl-8 glycerides and 80% glycerol monocaprylocaprate was administered orally at 7.5 mg fixed dose to 6 male beagle dogs (Table 9). At 100 mg/mL of the compound of Formula (Ia), the AUCinf increased with increasing glycerol monocaprylocaprate content. For the formulation with 100% glycerol monocaprylocaprate, the AUCinf at 50 mg/mL was higher than that at 100 mg/mL.
A single dose of the compound of Formula (Ia), formulated as liquid-filled capsules (LFC) containing 100% glycerol monocaprylocaprate, was administered orally at 7.5 mg fixed dose to 6 beagle dogs (Table S) and the pharmacokinetic (PK) profile was determined. […] Plasma concentrations of the compound of Formula (Ia) were maintained above the target trough concentration of 20 nM for at least 72 hours (3 days).

PI-resistant viruses = test: Cytopathic antiviral assay in MT-2 cells, PI-resistant viruses; assay type: cell-based, HIV-1; conditions: for EC50 Fold-Change: Mutant/WT (HXB2D) EC50 ratio, mean ± s.d. of three experiments
Protocol: as §2

[6] = male, Sprague-Dawley, plasma, rat, single oral 5.0 mg/kg, solution in 5% ethanol/20% propylene glycol/45% PEG 300/30% 0.01 N HCl, mean ± SD, n=3
[7] = male, plasma, single oral 4.0 mg/kg, solution in 5% ethanol/20% propylene glycol/45% PEG 300/30% 0.01 N HCl, mean ± SD, n=3
[8] = dog, plasma, oral SDD tablet of the sodium salt (Table T composition, Opadry II White film coat), mean ± SD, n=6
[9] = dog, plasma, fasted, pentagastrin-pretreated male beagle dogs, oral LFC 7.5 mg fixed dose, 20% caprylocaproyl polyoxyl-8 glycerides and 80% glycerol monocaprylocaprate, 100 mg/mL, mean ± SD, n=6
[10] = male, beagle, dog, plasma, po, 7.5 mg, fasted, pentagastrin-pretreated male beagle dogs, oral LFC 7.5 mg fixed dose, 100% glycerol monocaprylocaprate, 50 mg/mL, mean ± SD, n=6
[11] = male, beagle, dog, plasma, po, 7.5 mg, fasted, pentagastrin-pretreated male beagle dogs, oral LFC 7.5 mg fixed dose, 100% glycerol monocaprylocaprate, 100 mg/mL, mean ± SD, n=6

`CC(C)(C#Cc1ccc(-c2ccc(Cl)c3c(NS(C)(=O)=O)nn(CC(F)(F)F)c23)c([C@H](Cc2cc(F)cc(F)c2)NC(=O)Cn2nc(C(F)(F)F)c3c2C(F)(F)[C@@H]2C[C@H]32)n1)S(C)(=O)=O` [Formula (Ia), N—((S)-1-(3-(4-chloro-3-(methylsulfonamido)-1-(2,2,2-trifluoroethyl)-1H-indazol-7-yl)-6-(3-methyl-3-(methylsulfonyl)but-1-yn-1-yl)pyridin-2-yl)-2-(3,5-difluorophenyl)ethyl)-2-((3bS,4aR)-5,5-difluoro-3-(trifluoromethyl)-3b,4,4a,5-tetrahydro-1H-cyclopropa[3,4]cyclopenta[1,2-c]pyrazol-1-yl)acetamide] showed a bioavailability ([1]; male, Sprague-Dawley, plasma, rat, single oral 5.0 mg/kg, same solution, calculated based on AUC0-72h, mean ± SD, n=3, read-out: F (oral bioavailability)) of 21.7 ± 8.9%, an AUC(0-inf) [1, 6] of 25200 ± 10200 µM·h and a Cmax [1, 6] of 336000 ± 116000 nM. For the same compound, the Tmax [1, 6] was 10 ± 3.5 h, the AUC(0-t) ([1]; male, Sprague-Dawley, plasma, rat, single oral 5.0 mg/kg, solution in 5% ethanol/20% propylene glycol/45% PEG 300/30% 0.01 N HCl, mean ± SD, n=3, read-out: AUC0-72h) was 13500 ± 3930 µM·h and the “F % (bioavailability), in words” value ([1]; rats, oral solution) was “moderate”. For the same compound, the bioavailability ([2]; male, plasma, single oral 4.0 mg/kg, same solution, calculated based on AUC0-24h, mean ± SD, n=3, read-out: F (oral bioavailability)) was 2.2 ± 0.6%, the Cmax [2, 7] was 17700 ± 5600 nM and the Tmax [2, 7] was 8.7 ± 3.1 h. For the same compound, the AUC(0-t) ([2]; male, plasma, single oral 4.0 mg/kg, solution in 5% ethanol/20% propylene glycol/45% PEG 300/30% 0.01 N HCl, mean ± SD, n=3, read-out: AUC0-24h) was 298 ± 85 µM·h, the “F % (bioavailability), in words” value ([2]; oral solution) was “low” and the EC50 (HIV-2 isolates; HIV-2 isolate CBL-20) was 0.57 nM. For the same compound, the EC50 (HIV-2 isolates; HIV-2 isolate CDC310319) was 1.02 nM, the bioavailability ([3]; male, plasma, single oral 4.0 mg/kg, same solution, calculated based on AUC0-72h, mean ± SD, n=3, read-out: F (oral bioavailability)) was 4.4 ± 1.7% and the AUC(0-inf) [3, 7] was 1130 ± 446 µM·h. The Cmax [3, 7] was 29400 ± 7500 nM, the Tmax [3, 7] was 18.7 ± 9.2 h and the AUC(0-t) ([3]; male, plasma, single oral 4.0 mg/kg, solution in 5% ethanol/20% propylene glycol/45% PEG 300/30% 0.01 N HCl, mean ± SD, n=3, read-out: AUC0-72h) was 972 ± 367 µM·h. The “F % (bioavailability), in words” value ([3]; oral solution) was “low”, the “Time plasma concentrations maintained above the target trough concentration of 20 nM” value ([4]; oral SDD tablet of the sodium salt) was “at least 14 days” and the AUC(0-inf) [4, 8] was 18.5 ± 11.1 µM·h. It also gave a Cmax [4, 8] of 718 ± 409 nM, a Tmax [4, 8] of 5.3 ± 3.3 h and an AUC(0-t) ([4]; dog, plasma, oral SDD tablet of the sodium salt (Table T composition, Opadry II White film coat), mean ± SD, n=6, read-out: AUC0-72h) of 15.8 ± 10 µM·h. The concentration at 72 h ([4]; dog, plasma, oral SDD tablet of the sodium salt (Table T composition, Opadry II White film coat), mean ± SD, n=6, read-out: C72h) was 61.4 ± 30 nM, the EC50 (WT HXB2D; Human immunodeficiency virus 1, MT2, read-out: WT HXB2D EC50, MT-2 cells, INSTI-resistance panel (Table 14)) was 0.13 ± 0.03 nM and the EC50 (WT HXB2D; Human immunodeficiency virus 1, MT2, read-out: WT HXB2D EC50, MT-2 cells, NNRTI-resistance panel (Table 13)) was 0.18 ± 0.02 nM. The EC50 (WT HXB2D; MT-2 cells, PI-resistance panel (Table 11), read-out: WT HXB2D EC50) was 0.24 ± 0.14 nM, the “EC50 Fold-Change” value (NRTI-resistant viruses; 6TAMs) was 0.4 ± 0.2 and the “EC50 Fold-Change” value (NRTI-resistant viruses; K65R) was 0.7 ± 0.2. The “EC50 Fold-Change” value (NRTI-resistant viruses; M184V) was 0.5 ± 0.3, the “activity against all tested mutants, in words” value (NRTI-resistant viruses; mutants resistant to NRTIs) was “fully active” and the “Time plasma concentrations maintained above the target trough concentration of 20 nM” value ([5]; beagle dogs, oral liquid-filled capsules, 100% glycerol monocaprylocaprate, 7.5 mg fixed dose) was “at least 72 hours”. It also gave a Tmax ([5]; beagle, dog, plasma, po, 7.5 mg, beagle dogs, oral liquid-filled capsules, 100% glycerol monocaprylocaprate, 7.5 mg fixed dose, 50 mg/mL (Table S), mean ± SD, n=6) of 11 ± 10.1 h, an AUC(0-t) ([5]; beagle, dog, plasma, po, 7.5 mg, beagle dogs, oral liquid-filled capsules, 100% glycerol monocaprylocaprate, 7.5 mg fixed dose, 50 mg/mL (Table S), mean ± SD, n=6, read-out: AUC0-72h) of 5.07 ± 4.65 µM·h and an AUC(0-t) ([5]; beagle, dog, plasma, po, 7.5 mg, beagle dogs, oral liquid-filled capsules, 100% glycerol monocaprylocaprate, 7.5 mg fixed dose, 50 mg/mL (Table S), mean ± SD, n=6, read-out: AUC0-14d) of 108 ± 16 µM·h. For the same compound, the concentration at 72 h ([5]; dog, plasma, beagle dogs, oral liquid-filled capsules, 100% glycerol monocaprylocaprate, 7.5 mg fixed dose, 50 mg/mL (Table S), mean ± SD, n=6, read-out: C72h) was 20.1 ± 24.4 nM, the AUC(0-inf) [5, 9] was 1.3 ± 0.634 µM·h and the Cmax [5, 9] was 53.2 ± 16.7 nM. It also gave a Tmax [5, 9] of 7.7 ± 8 h, an AUC(0-t) ([5]; dog, plasma, fasted, pentagastrin-pretreated male beagle dogs, oral LFC 7.5 mg fixed dose, 20% caprylocaproyl polyoxyl-8 glycerides and 80% glycerol monocaprylocaprate, 100 mg/mL, mean ± SD, n=6, read-out: AUC0-72h) of 1.18 ± 0.575 µM·h and a bioavailability ([5]; male, beagle, dog, plasma, 7.5 mg, as above (20%/80% LFC, 100 mg/mL), mean ± SD, n=6) of 11 ± 4%. For the same compound, the bioavailability ([5]; male, beagle, dog, plasma, 7.5 mg, as above (100% glycerol monocaprylocaprate LFC, 50 mg/mL), mean ± SD, n=6) was 22 ± 10%, the bioavailability ([5]; male, beagle, dog, plasma, 7.5 mg, as above (100% glycerol monocaprylocaprate LFC, 100 mg/mL), mean ± SD, n=6) was 16 ± 9% and the AUC(0-inf) [5, 10] was 2.33 ± 1.35 µM·h. The Cmax [5, 10] was 82.7 ± 32.1 nM, the Tmax [5, 10] was 4 h and the AUC(0-t) ([5]; male, beagle, dog, plasma, po, 7.5 mg, fasted, pentagastrin-pretreated male beagle dogs, oral LFC 7.5 mg fixed dose, 100% glycerol monocaprylocaprate, 50 mg/mL, mean ± SD, n=6, read-out: AUC0-72h) was 2.18 ± 1.24 µM·h. For the same compound, the AUC(0-inf) [5, 11] was 1.87 ± 1.19 µM·h, the Cmax [5, 11] was 71.2 ± 25.8 nM and the Tmax [5, 11] was 5 ± 1.1 h. For the same compound, the AUC(0-t) ([5]; male, beagle, dog, plasma, po, 7.5 mg, fasted, pentagastrin-pretreated male beagle dogs, oral LFC 7.5 mg fixed dose, 100% glycerol monocaprylocaprate, 100 mg/mL, mean ± SD, n=6, read-out: AUC0-72h) was 1.67 ± 1.04 µM·h, the “EC50 Fold-Change” value (PI-resistant viruses; G48V/V82A/L90M) was 0.4 ± 0.2 and the “EC50 Fold-Change” value (PI-resistant viruses; G48V/V82S) was 0.4 ± 0.1. For the same compound, the “EC50 Fold-Change” value (PI-resistant viruses; I50V) was 0.6 ± 0.2, the “EC50 Fold-Change” value (PI-resistant viruses; I84V/L90M) was 0.3 ± 0.1 and the “activity against all tested mutants, in words” value (PI-resistant viruses; mutants resistant to PIs) was “fully active”.

From patent US12594267B2, “Capsid inhibitors for the treatment of HIV” (Gilead Sciences, Inc., priority 2018, dated 2026)
